Measurements reported in PubChem BioAssay AID256 (DTP/NCI, 2004).
Where “and” joins values, the source holds several entries; their conditions need not be identical. Equal values may be shown once. Toxic doses and inconclusive results are not listed. The calls were made as follows: active = survival T/C of 150% or more; inactive = T/C below 125% in these data.

Tested on: CD2F1 mice, L1210 leukemia ip, survival T/C
Test: NCI In Vivo Anticancer Drug Screen. Data for tumor model L1210 Leukemia (intraperitoneal) in CD2F1 (CDF1) mice
Conditions: higher = longer survival
Procedure: The antitumor activity of compounds was measured in mice bearing transplantable tumors. Survival or tumor size were measured and the results are expressed as the measurement made in the treated group (T) divided by the measurement made in the vehicle treated control group (C). The tumor model used in this assay is L1210 Leukemia (intraperitoneal) in CD2F1 (CDF1) mice

[1] = endpoint: median survival time, dose: 50.0 mg/kg/injection, schedule: Q01DX005 (ip), vehicle: saline
[2] = endpoint: median survival time, dose: 100.0 mg/kg/injection, schedule: Q01DX005 (ip), vehicle: saline
[3] = endpoint: median survival time, dose: 200.0 mg/kg/injection, schedule: Q01DX005 (ip), vehicle: saline
[4] = endpoint: mean survival time, dose: 100.0 mg/kg/injection, schedule: Q04DX003 (ip), vehicle: saline with Tween-80
[5] = endpoint: mean survival time, dose: 200.0 mg/kg/injection, schedule: Q04DX003 (ip), vehicle: saline with Tween-80
[6] = endpoint: mean survival time, dose: 400.0 mg/kg/injection, schedule: Q04DX003 (ip), vehicle: saline with Tween-80

Measured: T/C

CN1COc2c(n(C)c(=O)[nH]c2=O)C1
inactive: [1] 98 % of control | endpoint: median survival time, dose: 50.0 mg/kg/injection, schedule: Q01DX005 (ip), vehicle: suspension in saline 101 % of control | [2] 98 % of control | endpoint: median survival time, dose: 100.0 mg/kg/injection, schedule: Q01DX005 (ip), vehicle: suspension in saline 103 % of control | [3] 101 % of control | endpoint: median survival time, dose: 200.0 mg/kg/injection, schedule: Q01DX005 (ip), vehicle: suspension in saline 102 % of control | endpoint: median survival time, dose: 400.0 mg/kg/injection, schedule: Q01DX005 (ip), vehicle: saline 109 % of control | endpoint: median survival time, dose: 400.0 mg/kg/injection, schedule: Q01DX005 (ip), vehicle: suspension in saline 119 % of control | endpoint: median survival time, dose: 800.0 mg/kg/injection, schedule: Q01DX005 (ip), vehicle: saline 108 % of control | endpoint: median survival time, dose: 800.0 mg/kg/injection, schedule: Q01DX005 (ip), vehicle: suspension in saline 116 % of control

[CH3][Sb]([CH3])([CH3])([O]C(=O)CBr)[O]C(=O)CBr
inactive: endpoint: mean survival time, dose: 12.5 mg/kg/injection, schedule: Q01DX009 (ip), vehicle: saline with Tween-80 102 % of control | endpoint: mean survival time, dose: 25.0 mg/kg/injection, schedule: Q01DX009 (ip), vehicle: saline with Tween-80 100 % of control | endpoint: mean survival time, dose: 50.0 mg/kg/injection, schedule: Q01DX009 (ip), vehicle: saline with Tween-80 96 % of control

CCOC(=O)c1cc2ccccc2n1-c1ccccc1
inactive: [4] 95 % of control | [5] 97 % of control | [6] 95 % of control

O=C1OC2CC3CCC2C13 (centres undefined)
inactive: endpoint: mean survival time, dose: 6.25 mg/kg/injection, schedule: Q01DX009 (ip), vehicle: saline 101 % of control | endpoint: mean survival time, dose: 12.5 mg/kg/injection, schedule: Q01DX009 (ip), vehicle: saline 101 % of control | endpoint: mean survival time, dose: 25.0 mg/kg/injection, schedule: Q01DX009 (ip), vehicle: saline 95 % of control

CC1CCCC/C1=N/O (centres undefined)
inactive: endpoint: mean survival time, dose: 100.0 mg/kg/injection, schedule: Q04DX003 (ip), vehicle: saline 101 % of control | endpoint: mean survival time, dose: 200.0 mg/kg/injection, schedule: Q04DX003 (ip), vehicle: saline 101 % of control | endpoint: mean survival time, dose: 400.0 mg/kg/injection, schedule: Q04DX003 (ip), vehicle: saline 101 % of control

COc1cc(OC)c(/C=C/c2cc[n+](C)c3ccccc23)c(OC)c1
inactive: endpoint: mean survival time, dose: 1.56 mg/kg/injection, schedule: Q01DX009 (ip), vehicle: saline 106 % of control | endpoint: mean survival time, dose: 1.56 mg/kg/injection, schedule: Q04DX002 (ip), vehicle: saline 100 % of control | endpoint: mean survival time, dose: 3.13 mg/kg/injection, schedule: Q01DX009 (ip), vehicle: saline 109 % of control | endpoint: mean survival time, dose: 3.13 mg/kg/injection, schedule: Q04DX002 (ip), vehicle: saline 98 % of control | endpoint: mean survival time, dose: 6.25 mg/kg/injection, schedule: Q04DX002 (ip), vehicle: saline 88 % of control and 91 % of control

CC(=O)CCC(=O)OC1CCCCC1
inactive: [4] 102 % of control | [5] 97 % of control | [6] 97 % of control

C=CCN(CC=C)C1=CC(=O)C(=O)c2ccccc21
inactive: endpoint: mean survival time, dose: 75.0 mg/kg/injection, schedule: Q01DX001 (ip), vehicle: saline 91 % of control | endpoint: mean survival time, dose: 150.0 mg/kg/injection, schedule: Q01DX001 (ip), vehicle: saline 100 % of control | endpoint: mean survival time, dose: 300.0 mg/kg/injection, schedule: Q01DX001 (ip), vehicle: saline 89 % of control

CC(=O)Nc1c(C#N)ncn1C1OC(CO)C(O)C1O (centres undefined)
inactive: endpoint: median survival time, dose: 12.5 mg/kg/injection, schedule: Q01DX005 (ip), vehicle: saline 104 % of control | endpoint: median survival time, dose: 25.0 mg/kg/injection, schedule: Q01DX005 (ip), vehicle: saline 103 % of control | [1] 92 % of control | [2] 101 % of control | [3] 100 % of control

c1ccc2cc3nc4cc5ccccc5cc4nc3cc2c1
inactive: [4] 95 % of control | [5] 103 % of control | [6] 91 % of control

CCOc1ccc(/C=C2N=C(/C=C/c3ccccc3)OC\2=O)cc1
inactive: endpoint: mean survival time, dose: 100.0 mg/kg/injection, schedule: Q04DX002 (ip), vehicle: saline with Tween-80 91 % of control | endpoint: mean survival time, dose: 200.0 mg/kg/injection, schedule: Q04DX002 (ip), vehicle: saline with Tween-80 95 % of control | endpoint: mean survival time, dose: 400.0 mg/kg/injection, schedule: Q04DX002 (ip), vehicle: saline with Tween-80 91 % of control
